# Assay results: US4221794A, “Method of imparting immunomodulating and antiviral activity” (Newport Pharmaceuticals International, Inc., priority 1979, dated 1980)
# Where two headings read alike, the source gives them in different places.
# Columns and labels:
# [1] = Phase solubility study with DIP.PAcBA; assay type: physicochemical; conditions: constant pH
# Text: This is indicative of an interaction occuring in solution to yield a complex.
# [2] = test system: Influenza A Swine 1976 (Hlsw -N1); assay type: cell-based; conditions: A/Swine/76 (Hlsw N1)
# A/Texas/77 (H3 N2) = test: Inhibition of influenza virus replication, A/Texas/77; assay type: cell-based, influenza virus A/Texas/77
# A/Dunedin/73 (H3 N2) = test: Inhibition of influenza virus replication, A/Dunedin/73; assay type: cell-based, influenza virus A/Dunedin/73
# A/Jap/305 (H2 N2) = test: Inhibition of influenza virus replication, A/Jap/305; assay type: cell-based, influenza virus A/Jap/305
# A/PR8 (H0 N1) = test: Inhibition of influenza virus replication, A/PR8; assay type: cell-based
# A2 Hong Kong (H2 N2) = test: Inhibition of influenza virus replication, A2 Hong Kong; assay type: cell-based
Compound,solubility with DIP.PAcBA (phase solubility) [1],Inhibition of influenza virus replication ([2]; 1.0-10.0 μg/ml),Inhibition of influenza virus replication ([2]; 10.0-100 μg/ml),Inhibition of influenza virus replication ([2]; .01-1.0 μg/ml),Inhibition of influenza virus replication ([2]; >100 μg/ml),"Inhibition of influenza virus replication (A/Texas/77 (H3 N2); A/Texas/77, 1.0-10.0 μg/ml)","Inhibition of influenza virus replication (A/Texas/77 (H3 N2); A/Texas/77, 10.0-100 μg/ml)","Inhibition of influenza virus replication (A/Texas/77 (H3 N2); A/Texas/77, .01-1.0 μg/ml)","Inhibition of influenza virus replication (A/Texas/77 (H3 N2); A/Texas/77, >100 μg/ml)","Inhibition of influenza virus replication (A/Dunedin/73 (H3 N2); A/Dunedin/73, 10.0-100 μg/ml)","Inhibition of influenza virus replication (A/Dunedin/73 (H3 N2); A/Dunedin/73, >100 μg/ml)","Inhibition of influenza virus replication (A/Jap/305 (H2 N2); A/Jap/305, 10.0-100 μg/ml)","Inhibition of influenza virus replication (A/Jap/305 (H2 N2); A/Jap/305, >100 μg/ml)","Inhibition of influenza virus replication (A/PR8 (H0 N1); A/PR8, 1.0-10.0 μg/ml)","Inhibition of influenza virus replication (A/PR8 (H0 N1); A/PR8, 10.0-100 μg/ml)","Inhibition of influenza virus replication (A/PR8 (H0 N1); A/PR8, .01-1.0 μg/ml)","Inhibition of influenza virus replication (A/PR8 (H0 N1); A/PR8, >100 μg/ml)",Inhibition of influenza virus replication (A2 Hong Kong (H2 N2); 10.0-100 μg/ml),Inhibition of influenza virus replication (A2 Hong Kong (H2 N2); >100 μg/ml)
"CCCCCC[C@H]([C@H](C)O)n1cnc2c(=O)[nH]cnc21 (relative stereo) [NPT 15392, ERYTHRO-9-(2-HYDROXY-3-NONYL)HYPOXANTHINE]",increased solubility at increasing concentrations of DIP.PAcBA,–,–,–,–,–,–,–,–,–,–,–,–,–,–,–,–,–,–
CCCCCC[C@H]([C@H](C)O)n1cnc2c(=O)[nH]cnc21 (relative stereo) [NPT 15410],–,++ (30-50% Inhibition),++++ (>70% Inhibition),+++ (50-70% Inhibition),++++ (>70% Inhibition),+ (20-30% Inhibition),++++ (>70% Inhibition),++ (30-50% Inhibition),++++ (>70% Inhibition),± (10-20% Inhibition),++ (30-50% Inhibition),++++ (>70% Inhibition),++++ (>70% Inhibition),++ (30-50% Inhibition),++++ (>70% Inhibition),++ (30-50% Inhibition),+++ (50-70% Inhibition),++ (30-50% Inhibition),+++ (50-70% Inhibition)
